# From US9884832B2 (priority 2011, dated 2018)
# Molecular target: AM2 S31 (wild-type serine at position 31 in the M2 protein), influenza virus A/Udorn/72 (Influenza A virus, UniProt P0DOF5)
# Experiment: cell-based
# Conditions: 100 uM; Xenopus oocytes; activity range class; read-out: S31 OOcyte Inhibition at 100 uM (%)
# Chain of AM2 S31 (wild-type serine at position 31 in the M2 protein), influenza virus A/Udorn/72 (P0DOF5 whole entry, looked up): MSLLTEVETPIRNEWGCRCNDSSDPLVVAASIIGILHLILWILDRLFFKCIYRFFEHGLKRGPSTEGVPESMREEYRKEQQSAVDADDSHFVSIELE
row,SMILES,inhibition at 100 µM [%]
1,"COc1ccc(-c2cc(CNC34CC5CC(CC(C5)C3)C4)on2)cc1 [Example 122a, N-((3-(4-methoxyphenyl)isoxazol-5-yl)methyl)adamantan-1-amine]",0 to 30
2,COc1ccc2[nH]c(CNC34CC5CC(CC(C5)C3)C4)cc2c1 [Example 182a],0 to 30
3,"c1cc(CNC23CC4CC(CC(C4)C2)C3)cs1 [Example 68a, Adamantan-1-yl-thiophen-3-ylmethyl-amine]",31 to 95
4,"c1csc(-c2cc(CNC34CC5CC(CC(C5)C3)C4)on2)c1 [Example 149a, N-((3-(thiophen-2-yl)isoxazol-5-yl)methyl)adamantan-1-amine]",0 to 30
5,"Cc1ncc(-c2ccc(CNC34CC5CC(CC(C5)C3)C4)s2)s1 [Example 154a, N-((5-(2-methylthiazol-5-yl)thiophen-2-yl)methyl)adamantan-1-amine]",0 to 30
6,"CC(C)n1cc(CNC23CC4CC(CC(C4)C2)C3)cn1 [Example 85a, N-((1-isopropyl-1H-pyrazol-4-yl)methyl)adamantan-1-amine]",0 to 30
7,"c1coc(-c2ncc(CNC34CC5CC(CC(C5)C3)C4)cn2)c1 [Example 62a, N-((2-(furan-2-yl)pyrimidin-5-yl)methyl)adamantan-1-amine]",0 to 30
8,"c1scc2[nH]c(CNC34CC5CC(CC(C5)C3)C4)nc12 [Example 171a, Adamantan-1-yl-(1H-thieno[3,4-d]imidazol-2-ylmethyl)-amine]",0 to 30
9,"c1cn(-c2ccc(CNC34CC5CC(CC(C5)C3)C4)s2)cn1 [Example 161a, N-((5-(1H-imidazol-1-yl)thiophen-2-yl)methyl)adamantan-1-amine]",0 to 30
10,"c1coc(-c2ccc(CNC34CC5CC(CC(C5)C3)C4)cc2)c1 [Example 31a, N-(4-(Furan-2-yl)benzyl)adamantan-1-amine]",0 to 30
11,"Cc1noc(C)c1-c1ccc(CNC23CC4CC(CC(C4)C2)C3)cc1 [Example 33a, N-(4-(3,5-Dimethylisoxazol-4-yl)benzyl)adamantan-1-amine]",0 to 30
12,"Ic1ccc(CNC23CC4CC(CC(C4)C2)C3)s1 [Example 91a, N-((5-Iodothiophen-2-yl)methyl)adamantan-1-amine]",31 to 95
13,"FC(F)(F)c1cccc(-c2nc(CNC34CC5CC(CC(C5)C3)C4)no2)c1 [Example 125a, N-((5-(3-(trifluoromethyl)phenyl)-1,2,4-oxadiazol-3-yl)methyl)adamantan-1-amine]",0 to 30
14,"COc1ccc(CNC23CC4CC(CC(C4)C2)C3)s1 [Example 75a, N-((5-methoxythiophen-2-yl)methyl)adamantan-1-amine]",31 to 95
15,"FC(F)(F)Oc1ccc(CNC23CC4CC(CC(C4)C2)C3)cc1 [Example 4a, Adamantan-1-yl-(4-trifluoromethoxy-benzyl)-amine]",0 to 30
16,COc1cc(Cl)sc1CNC12CC3CC(CC(C3)C1)C2 [Example 80a],31 to 95
17,"Cc1nc(-c2ccc(CNC34CC5CC(CC(C5)C3)C4)s2)cs1 [Example 156a, N-((5-(2-methylthiazol-4-yl)thiophen-2-yl)methyl)adamantan-1-amine]",0 to 30
18,"O=[N+]([O-])c1ccc(CNC23CC4CC(CC(C4)C2)C3)s1 [Example 100a, N-((5-nitrothiophen-2-yl)methyl)adamantan-1-amine]",31 to 95
19,"Brc1csc(CNC23CC4CC(CC(C4)C2)C3)c1 [Example 105a, N-((4-bromothiophen-2-yl)methyl)adamantan-1-amine]",31 to 95
20,"Cc1nc(CNC23CC4CC(CC(C4)C2)C3)no1 [Example 96a, N-((5-methyl-1,2,4-oxadiazol-3-yl)methyl)adamantan-1-amine]",31 to 95
21,"c1cc(-c2ccc(CNC34CC5CC(CC(C5)C3)C4)s2)[nH]n1 [Example 158a, N-((5-(1H-pyrazol-5-yl)thiophen-2-yl)methyl)adamantan-1-amine]",0 to 30

# Same assay, conditions: Table 1; 100 uM; Xenopus oocytes, pH 5.5, -20 mV; read-out: S31 OOcyte Inhibition at 100 uM (%)
row,SMILES,inhibition at 100 µM [%]
1,"c1cc(-c2nnn[nH]2)ccc1CNC12CC3CC(CC(C3)C1)C2 [Example 15, Adamantan-1-yl-[4-(1H-tetrazol-5-yl)-benzyl]amine]",0 to 30
2,"CC(C)(C)C1CCC(NCc2ccc(O)cc2O)CC1 (stereo not shown) [Example 109, 4-[(4-tert-Butyl-cyclohexylamino)-methyl]-benzene-1,3-diol]",31 to 95
3,"Oc1cccc(CNC23CC4CC(CC(C4)C2)C3)c1O [Example 64, 3-(Adamantan-1-ylaminomethyl)-benzene-1,2-diol]",31 to 95
4,"c1csc(-c2ccc(CNC34CC5CC(CC(C5)C3)C4)s2)c1 [Example 78, N-([2,2′-Bithiophen]-5-ylmethyl)adamantan-1-amine]",0 to 30
5,"COc1ccc(CNC23CC4CC(CC(C4)C2)C3)cc1 [Example 16, Adamantan-1-yl-(4-methoxy-benzyl)-amine]",31 to 95
6,"O=C(Oc1ccc(CNC23CC4CC(CC(C4)C2)C3)cc1)C1CC1 [Example 34, Cyclopropanecarboxylic acid 4-(adamantan-1-ylaminomethyl)-phenyl ester]",0 to 30
7,"c1nc(-c2ccc(CNC34CC5CC(CC(C5)C3)C4)cc2)no1 [Example 40, Adamantan-1-yl-(4-[1,2,4]oxadiazol-3-yl-benzyl)-amine]",0 to 30
8,"COc1ccc(CNC23CC4CC(CC(C4)C2)C3)cc1O [Example 61, 5-(Adamantan-1-ylaminomethyl)-2-methoxy-phenol]",31 to 95
9,"c1cn2cc(CNC34CC5CC(CC(C5)C3)C4)nc2s1 [Example 86, Adamantan-1-yl-imidazo[2,1-b]thiazol-6-ylmethyl-amine]",31 to 95
10,"CSc1ccc(CNC2C3CC4CC(C3)CC2C4)cc1 (stereo not shown) [Example 103, Adamantan-2-yl-(4-methylsulfanyl-benzyl)-amine]",0 to 30
11,"c1nc2ccc(CNC34CC5CC(CC(C5)C3)C4)cc2[nH]1 [Example 94, Adamantan-1-yl-(3H-benzoimidazol-5-ylmethyl)-amine]",0 to 30
12,"COc1ccc(F)c(CNC23CC4CC(CC(C4)C2)C3)c1 [Example 63, Adamantan-1-yl-(2-fluoro-5-methoxy-benzyl)-amine]",31 to 95
13,"C[S+]([O-])c1ccc(CNC23CC4CC(CC(C4)C2)C3)cc1 (stereo not shown) [Example 24, Adamantan-1-yl-(4-methanesulfinyl-benzyl)-amine]",0 to 30
14,"c1cn2cc(CNC3C4CC5CC(C4)CC3C5)nc2s1 (stereo not shown) [Example 107, Adamantan-2-yl-imidazo[2,1-b]thiazol-6-ylmethyl-amine]",31 to 95

# Same assay, conditions: Table 3; 100 uM; Xenopus oocytes, pH 5.5, -20 mV; read-out: S31 OOcyte Inhibition at 100 uM (%)
row,SMILES,inhibition at 100 µM [%]
1,"C[Si](C)(C)c1ccc(CNC23CC4CC(CC(C4)C2)C3)s1 [Example 75b, Adamantan-1-yl-(5-trimethylsilanyl-thiophen-2-ylmethyl)-amine]",0 to 30
2,"CC(C)(C)c1ncc(CNC23CC4CC(CC(C4)C2)C3)s1 [Example 20b, N-((2-(tert-butyl)thiazol-5-yl)methyl)adamantan-1-amine]",0 to 30
3,"COc1ccccc1-c1noc(CNC23CC4CC(CC(C4)C2)C3)n1 [Example 30b, N-((3-(2-methoxyphenyl)-1,2,4-oxadiazol-5-yl)methyl)adamantan-1-amine]",0 to 30
4,"O=C(CNC12CC3CC(CC(C3)C1)C2)c1cccs1 [Example 87b, 2-(adamantan-1-ylamino)-1-(thiophen-2-yl)ethanone]",31 to 95
5,"CCSc1ncc(CNC23CC4CC(CC(C4)C2)C3)cn1 [Example 56b, N-((2-(ethylthio)pyrimidin-5-yl)methyl)adamantan-1-amine]",0 to 30
6,"CCCc1nc(CNC23CC4CC(CC(C4)C2)C3)no1 [Example 29b, N-((5-propyl-1,2,4-oxadiazol-3-yl)methyl)adamantan-1-amine]",0 to 30
7,"COc1ccc(-c2nc(CNC34CC5CC(CC(C5)C3)C4)no2)c(OC)c1 [Example 34b, N-((5-(2,4-dimethoxyphenyl)-1,2,4-oxadiazol-3-yl)methyl)adamantan-1-amine]",0 to 30
8,"COc1ccsc1-c1cc(CNC23CC4CC(CC(C4)C2)C3)no1 [Example 44b, N-((5-(3-methoxythiophen-2-yl)isoxazol-3-yl)methyl)adamantan-1-amine]",0 to 30
9,"Cc1csc(-c2ccc(CNC34CC5CC(CC(C5)C3)C4)s2)c1 [Example 51b, N-((4′-Methyl-[2,2′-bithiophen]-5-yl)methyl)adamantan-1-amine]",0 to 30
10,"CSc1ccc(-c2cc(CNC34CC5CC(CC(C5)C3)C4)no2)cc1 [Example 37b, N-((5-(4-(methylthio)phenyl)isoxazol-3-yl)methyl)adamantan-1-amine]",0 to 30
11,"Clc1nc(CNC23CC4CC(CC(C4)C2)C3)ns1 [Example 10b, N-((5-chloro-1,2,4-thiadiazol-3-yl)methyl)adamantan-1-amine]",31 to 95
12,"CSc1ccc(-c2cc(CNC34CC5CC(CC3C5)C4)no2)cc1 [Example 90b, (2R,3as,5S,6as)-N-((5-(4-(methylthio)phenyl)isoxazol-3-yl)methyl)octahydro-2,5-methanopentalen-3a-amine]",0 to 30
13,"CC(C)c1cc(CNC23CC4CC(CC(C4)C2)C3)no1 [Example 27b, N-((5-isopropylisoxazol-3-yl)methyl)adamantan-1-amine]",0 to 30
14,"OC12CC3CC(C1)CC(NCc1noc(C4CCCCC4)n1)(C3)C2 [Example 86b, (1s,3r,5R,7S)-3-(((5-cyclohexyl-1,2,4-oxadiazol-3-yl)methyl)amino)adamantan-1-ol]",0 to 30
15,"Brc1ccsc1CNC12CC3CC(CC(C3)C1)C2 [Example 47b, N-((3-Bromothiophen-2-yl)methyl)adamantan-1-amine]",31 to 95
16,C(#Cc1cccs1)CNC12CC3CC(CC(C3)C1)C2 [Example 88b],0 to 30
17,Nc1ncc(CNC23CC4CC(CC(C4)C2)C3)s1 [Example 19b],0 to 30
